This data set has as its system HH patients. Briefly: Phase 2 open-label dose-finding study in hereditary hemochromatosis patients. The data set is classed as in vivo, human. The method, then: A clinical efficacy study was conducted in HH patients. Subjects received subcutaneous Compound 25 for up to 24 weeks. Subjects were started at an initial dose of 10 mg per week subcutaneously. The dose was increased to 20 mg per week, and subsequently to 40 mg and to 80 mg per week as needed, based on tolerability and the pharmacodynamic marker TSAT. In addition, subcutaneous dosing schedules of 10 mg, 20 mg, 30, and 40 mg twice weekly (Day 1 and either Day 4 or Day 5 were tested). The majority of patients were administered doses of 20 mg per week or less. Subjects' safety and blood iron parameters (serum iron, serum ferritin, transferrin, and TSAT) were collected to monitor the pharmacodynamic effect of Compound 25. Effects on phlebotomy need and QoL data (36-Item Short Form Health Survey [SF-36], and Patient's Global Impression of Change [PGI-C]) were also be collected and tabulated.
Individual subject's dose and schedule were determined based on the pharmacodynamic (PD) marker TSAT measured at two time points following dosing: once at peak PD effect one day post dose and once at trough PD effect. […] The trough PD effect was the TSAT value measured 7 days after the Compound 25 dose (and before the next dose) for once weekly dosing or 7 days after the first dose in a week for twice weekly dosing. […] To facilitate dose escalation and the identification of a therapeutic dose, investigators assessed TSAT values on days subjects came to the clinic for any dose adjustments.
Methods: This single-arm, open-label, dose-finding phase 2 study investigated subcutaneous hepcidin mimetic (Compound 25) in patients (pts) with confirmed HH who were on documented stable phlebotomies (phl) for at least 6 months (mos) prior to treatment with a phl frequency of 0.25-1 per month. […] Endpoints included TSAT, serum iron, serum transferrin and serum ferritin, liver iron content (LIC) measured by FerriScan MRI, adverse events, and patient-reported outcomes on the Patient Global Impression of change (PGI-C) and Medical Outcome Study Questionnaire Short Form Health Survey (SF-36). […]

On to `CCCCCCCCCCCCCCCC(=O)N[C@@H](CCC(=O)NCCCC[C@@H]1NC(=O)[C@H]([C@@H](C)CC)NC(=O)[C@@H](NC(=O)[C@@H]2CCCN2C(=O)[C@H](Cc2ccccc2)NC(=O)[C@H](Cc2c[nH]cn2)NC(=O)[C@@H](NC(=O)[C@H](CC(=O)O)NC(=O)CC(C)C)[C@@H](C)O)CSSC[C@@H](C(=O)N[C@@H](CCCCN)C(N)=O)NC(=O)CNC(=O)[C@H](CCCCN)NC(=O)[C@H](CO)NC(=O)[C@H](CCCNC(=N)N)NC(=O)[C@@H]2CCCN2C(=O)[C@H](CCC(=O)O)NC(=O)[C@H](Cc2ccccc2)NC1=O)C(=O)O` [Compound 25, Isovaleric acid-DTHFPCI(K(isoGlu-Palm))FEPRSKGCK-NH2], for which the tolerability entry (HH patients, subcutaneous, up to 24 weeks) was “generally well tolerated”. For the same molecule, the “treatment-related adverse events, severity” value (all treatment-related adverse events) is listed as “CTCAE grade 1 or 2”. The “hematological parameters (hematocrit, erythrocytes, leucocytes, platelets)” value (human, in vivo) is “no notable changes”.

(Values after patent publication US20240293511A1, “HEPCIDIN MIMETICS FOR TREATMENT OF HEREDITARY HEMOCHROMATOSIS” (Protagonist Therapeutics, Inc., priority 2021, published 2024).)
